From patent US8980226B2, “Aerosolized fosfomycin/aminoglycoside combination for the treatment of bacterial respiratory infections” (Gilead Sciences, Inc., priority 2004, dated 2015)
Read-outs that look alike come from different tables or passages of the source.

Assays:
Type in all cases: cell-based
[1] = tested on: K. pneumoniae; experiment: MIC, agar-plate dilution method
Protocol: (§1) “Minimal inhibitory concentration (MIC)” means the lowest concentration of antibiotic (s) that prevents visible growth after incubation for 18-20 hours at 35° C.
(§2) The efficacy of antibiotics and antibiotic combinations against Gram-positive and Gram-negative bacteria representative of species that cause respiratory infections in patients with cystic fibrosis, bronchiectasis, sinusitis, and ventilator-associated pneumonia were evaluated in MIC assays. P. aeruginosa strains were isolated from lung sputum samples collected from cystic fibrosis patients, blood cultures, respiratory tract infections, and skin or soft tissue infections. E. coli, H. influenzae, B. cepacia, S. maltophilia, K. pneumoniae, M. catarrhalis, S. aureus, S. pneumoniae, S. pyogenes, and E. faecalis were isolated from respiratory tract infections. E. coli ATCC 25922, P. aeruginosa ATCC 27853, and S. aureus ATCC 29213 were used as quality control stains.
(§3) The MICs of fosfomycin alone, tobramycin alone, or combinations of fosfomycin plus tobramycin were determined by the agar-plate dilution method according to NCCLS guidelines (NCCLS, 2003). Bacterial strains were streaked onto Trypic Soy Agar plates (PML Microbiologicals, Wilsonville, Oreg.) containing 5% defibrinated sheep blood (hereafter referred to as blood agar plates) and incubated overnight at 35° C. Two to three bacterial colonies from the overnight cultures were inoculated into 3 mL of sterile normal saline, vortexed briefly, and adjusted to a 0.5 McFarland standard (NCCLS, 2003). The bacterial suspension was diluted 1:40 in sterile normal saline and served as the inoculum. Mueller-Hinton agar plates (hereafter referred to as MHA) were prepared by combining 16 g of agarose (Becton-Dickinson, Sparks, Md.), 22 g of Mueller-Hinton broth powder (Becton-Dickinson, Sparks, Md.), and adjusted to 1 L with distilled water. The agar was sterilized by autoclaving, cooled to 55° C., and supplemented with 25 μg/mL of glucose-6-phosphate (Sigma-Aldrich, St. Louis, Mo.). Twenty-five mL of cooled agar was aliquoted into 50 mL conical tubes and supplemented with appropriate concentrations of antibiotic to achieve concentrations ranging from 0.06 μg/mL to 512 μg/mL. After gently mixing the agar and antibiotic, the suspension was poured into sterile 100 mm petri dishes and allowed to solidify at room temperature. The antibiotic agar plates were inoculated with approximately 2×10^4 CFU/spot with a 48-point inoculator (Sigma-Aldrich, St. Louis, Mo.). The MIC was defined as the lowest concentration of antibiotic (s) that prevented visible growth after incubation for 18-20 hours at 35° C. The efficacy of a particular antibiotic or antibiotic combination on large populations of P. aeruginosa was determined by calculating the MIC50 and MIC90 values. The MIC50 value was defined as the concentration of antibiotic(s) which inhibited 50% of the P. aeruginosa strains. The MIC90 value was defined as the concentration of antibiotic(s) which inhibited 90% of the P. aeruginosa strains (Wiedemann and Grimm, 1996).

[2] = tested on: S. maltophilia; experiment: MIC, agar-plate dilution method; details: Stenotrophomonas maltophilia
Protocol: as §1, §2, §3

[3] = tested on: E. coli; experiment: MIC, agar-plate dilution method; details: Escherichia coli
Protocol: as §1, §2, §3

[4] = tested on: S. pyogenes; experiment: MIC, agar-plate dilution method; details: Streptococcus pyogenes
Protocol: as §1, §2, §3

[5] = tested on: S. aureus; experiment: MIC, agar-plate dilution method
Protocol: as §1, §2, §3

[6] = tested on: S. pneumoniae; experiment: MIC, agar-plate dilution method; details: Streptococcus pneumoniae
Protocol: as §1, §2, §3

[7] = tested on: B. cepacia; experiment: MIC, agar-plate dilution method
Protocol: as §1, §2, §3

[8] = tested on: M. catarrhalis; experiment: MIC, agar-plate dilution method
Protocol: as §1, §2, §3

[9] = tested on: P. aeruginosa; experiment: MIC, agar-plate dilution method; details: Pseudomonas aeruginosa
Protocol: as §1, §2, §3

[10] = tested on: E. faecalis; experiment: MIC, agar-plate dilution method; details: Enterococcus faecalis
Protocol: as §1, §2, §3

[11] = tested on: H. influenzae; experiment: MIC, agar-plate dilution method
Protocol: as §1, §2, §3

[12] = tested on: P. aeruginosa ATCC 27853; experiment: Time-kill kinetics in the presence of 2% porcine gastric mucin; details: for killing in time-kill curves / Time to reach bactericidal killing, antibiotic alone: P. aeruginosa ATCC 27853; for killing in time-kill curves: FIGS. 1-7, fosfomycin and tobramycin alone as comparators of the combination; for Time to reach bactericidal killing, antibiotic alone: single antibiotic, 32 μg/mL
Protocol: Two to three bacterial colonies were inoculated into 10 mL CAMHB and incubated at 35° C. in a shaking water bath (250 rpm) for 18-24 hours. […] The resulting culture was adjusted to a 0.5 McFarland standard (NCCLS, 2003). […] Ten milliliter aliquots were then pipeted into 50 mL conical tubes. […] The killing activity of fosfomycin plus amikacin, arbekacin, dibikacin, gentamicin, kanamycin, […], neomycin, streptomycin, or tobramycin were also compared to the killing activity of their individual components alone. […] A no drug control was run in each experiment. Cultures were incubated with antibiotic at 35° C. in a shaking (250 rpm) water bath for 24 hours. […] Culture plates were incubated at 35° C. for 18-24 hours and the number of colonies enumerated manually. The limit of detection for the colony counting method was 1 Log10). Time-kill curves were constructed by plotting the Log10 number of CFU/mL culture versus time.

[13] = Klebsiella pneumoniae, K. pneumoniae COR-042, read-out: MIC
[14] = S. maltophilia COR-083, read-out: MIC
[15] = Staphylococcus aureus, S. aureus COR-051 (MSSA), read-out: MIC
[16] = Staphylococcus aureus, S. aureus COR-055 (MRSA), read-out: MIC
[17] = Moraxella catarrhalis, M. catarrhalis COR-109, read-out: MIC
[18] = P. aeruginosa COR-003, read-out: MIC
[19] = P. aeruginosa COR-021, read-out: MIC
[20] = Haemophilus influenzae, H. influenzae COR-042, read-out: MIC

**Q.** How did the MIC ([1]; Klebsiella pneumoniae, K. pneumoniae COR-049) turn out when C[C@@H]1O[C@@H]1P(=O)(O)O [Fosfomycin] was run?
**A.** Its MIC is 128 µg/mL.

**Q.** What about the MIC [1, 13] of the same molecule?
**A.** The MIC was 8 µg/mL.

**Q.** What about the MIC [2] of the same molecule?
**A.** Its MIC is 128 µg/mL.

**Q.** What about the MIC [2, 14] of the same molecule?
**A.** Its MIC is 64 µg/mL.

**Q.** And the MIC ([2]; S. maltophilia COR-087, read-out: MIC)?
**A.** Its MIC is at least 512 µg/mL.

**Q.** And the MIC ([3]; E. coli COR-032)?
**A.** The MIC was 1 µg/mL.

**Q.** And the MIC ([3]; E. coli COR-039)?
**A.** Its MIC is 64 µg/mL.

**Q.** And the MIC ([3]; E. coli COR-040)?
**A.** The MIC was 1 µg/mL.

**Q.** And the MIC ([4]; S. pyogenes COR-104)?
**A.** Its MIC is 64 µg/mL.

**Q.** And the MIC ([4]; S. pyogenes COR-105)?
**A.** Its MIC is 16 µg/mL.

**Q.** What about the MIC ([5]; S. aureus COR-060 (GISA)) of the same molecule?
**A.** Its MIC is 2 µg/mL.

**Q.** And the MIC [5, 15]?
**A.** Its MIC is 1 µg/mL.

**Q.** What about the MIC [5, 16] of the same molecule?
**A.** Its MIC is 4 µg/mL.

**Q.** What about the MIC ([5]; Staphylococcus aureus, S. aureus COR-059, read-out: MIC) of the same molecule?
**A.** Its MIC is 2 µg/mL.

**Q.** And the MIC ([6]; S. pneumoniae COR-061)?
**A.** The MIC was 32 µg/mL.

**Q.** What about the MIC ([6]; S. pneumoniae COR-068) of the same molecule?
**A.** The MIC was 8 µg/mL.

**Q.** And the MIC ([7]; B. cepacia COR-098)?
**A.** Its MIC is “≧2048 μg/mL”.

**Q.** And the MIC ([7]; Burkholderia cepacia, B. cepacia COR-090, read-out: MIC)?
**A.** The MIC was at least 2050 µg/mL.

**Q.** And the MIC ([8]; M. catarrhalis COR-113)?
**A.** The MIC was 4 µg/mL.

**Q.** What about the MIC [8, 17] of the same molecule?
**A.** Its MIC is 4 µg/mL.

**Q.** What about the MIC [9, 18] of the same molecule?
**A.** The MIC was 16 µg/mL.

**Q.** And the MIC ([9]; P. aeruginosa COR-009)?
**A.** The MIC was 1020 µg/mL.

**Q.** What about the MIC [9, 19] of the same molecule?
**A.** Its MIC is 8 µg/mL.

**Q.** And the MIC ([9]; P. aeruginosa COR-027)?
**A.** The MIC was 128 µg/mL.

**Q.** And the MIC ([10]; E. faecalis COR-099)?
**A.** Its MIC is 32 µg/mL.

**Q.** And the MIC ([10]; E. faecalis COR-103)?
**A.** The MIC was 32 µg/mL.

**Q.** What about the MIC ([11]; Haemophilus influenzae, H. influenzae COR-049) of the same molecule?
**A.** Its MIC is 128 µg/mL.

**Q.** And the MIC [11, 20]?
**A.** Its MIC is 8 µg/mL.

**Q.** And the “killing in time-kill curves” value [12]?
**A.** Its value is “bacteriostatic killing”.

**Q.** What about the “Time to reach bactericidal killing, antibiotic alone” value [12] of the same molecule?
**A.** The value was “not bactericidal”.

**Q.** How did the MIC ([1]; K. pneumoniae COR-049) turn out when NC[C@H]1O[C@H](O[C@H]2[C@H](O)[C@@H](O[C@H]3O[C@H](CO)[C@@H](O)[C@H](N)[C@H]3O)[C@H](N)C[C@@H]2N)[C@H](N)C[C@@H]1O [Tobramycin] was run?
**A.** The MIC was 0.5 µg/mL.

**Q.** And the MIC [1, 13]?
**A.** Its MIC is 0.5 µg/mL.

**Q.** And the MIC [2]?
**A.** The MIC was 128 µg/mL.

**Q.** And the MIC ([2]; S. maltophilia COR-082, read-out: MIC)?
**A.** Its MIC is 4 µg/mL.

**Q.** What about the MIC [2, 14] of the same molecule?
**A.** The MIC was 512 µg/mL.

**Q.** What about the MIC ([3]; E. coli COR-032) of the same molecule?
**A.** The MIC was 0.5 µg/mL.

**Q.** And the MIC ([3]; E. coli COR-039)?
**A.** The MIC was 0.25 µg/mL.

**Q.** What about the MIC ([3]; E. coli COR-040) of the same molecule?
**A.** Its MIC is 32 µg/mL.

**Q.** And the MIC ([4]; S. pyogenes COR-104)?
**A.** Its MIC is 32 µg/mL.

**Q.** What about the MIC ([4]; S. pyogenes COR-105) of the same molecule?
**A.** The MIC was 64 µg/mL.

**Q.** What about the MIC [5, 15] of the same molecule?
**A.** Its MIC is 0.25 µg/mL.

**Q.** What about the MIC [5, 16] of the same molecule?
**A.** Its MIC is 0.25 µg/mL.

**Q.** What about the MIC ([5]; Staphylococcus aureus, S. aureus COR-059) of the same molecule?
**A.** Its MIC is 128 µg/mL.

**Q.** What about the MIC ([5]; Staphylococcus aureus, S. aureus COR-060 (GISA), read-out: MIC) of the same molecule?
**A.** The MIC was 64 µg/mL.

**Q.** What about the MIC ([6]; S. pneumoniae COR-061) of the same molecule?
**A.** The MIC was 64 µg/mL.

**Q.** What about the MIC ([6]; S. pneumoniae COR-068) of the same molecule?
**A.** The MIC was 16 µg/mL.

**Q.** And the MIC ([7]; Burkholderia cepacia, B. cepacia COR-090)?
**A.** The MIC was 128 µg/mL.

**Q.** What about the MIC ([7]; Burkholderia cepacia, B. cepacia COR-098, read-out: MIC) of the same molecule?
**A.** The MIC was 64 µg/mL.

**Q.** And the MIC ([8]; M. catarrhalis COR-113)?
**A.** The MIC was 8 µg/mL.

**Q.** What about the MIC [8, 17] of the same molecule?
**A.** Its MIC is 8 µg/mL.

**Q.** What about the MIC [9, 18] of the same molecule?
**A.** Its MIC is 0.5 µg/mL.

**Q.** What about the MIC ([9]; P. aeruginosa COR-009, read-out: MIC) of the same molecule?
**A.** Its MIC is 2050 µg/mL.

**Q.** And the MIC [9, 19]?
**A.** The MIC was 64 µg/mL.

**Q.** And the MIC ([9]; P. aeruginosa COR-027, read-out: MIC)?
**A.** Its MIC is 0.5 µg/mL.

**Q.** And the MIC ([10]; E. faecalis COR-099)?
**A.** Its MIC is 512 µg/mL.

**Q.** And the MIC ([10]; E. faecalis COR-103)?
**A.** Its MIC is 8 µg/mL.

**Q.** And the MIC ([11]; H. influenzae COR-049)?
**A.** Its MIC is 0.5 µg/mL.

**Q.** And the MIC [11, 20]?
**A.** Its MIC is 0.5 µg/mL.

**Q.** And the “rank of killing activity, combinations and tobramycin alone compared” value ([12]; 16 ug/mL, FIGS. 8 and 9)?
**A.** Its value is “most active antibiotic”.

**Q.** What about the “killing in time-kill curves” value [12] of the same molecule?
**A.** Its value is “bacteriostatic killing”.

**Q.** And the “Time to reach bactericidal killing, antibiotic alone” value [12]?
**A.** Its value is 1 h.
